Consider 33 molecules from US20100210635A1, “RENIN INHIBITORS” (Takeda Pharmaceutical Company Limited, priority 2006, published 2010).

The structures appear in SMILES notation.

As a reminder, the IC50 is the concentration that gives 50% inhibition.

For this experiment, the target named is T1, Recombinant human renin (Homo sapiens, UniProt P00797).
T1 construct: isolate the active form (residues 67-406); made in house; host or cells: FreeStyle 293-F cells (transient expression of pcDNA3.1(+)/hREN)
T1 sequence (P00797 67-406): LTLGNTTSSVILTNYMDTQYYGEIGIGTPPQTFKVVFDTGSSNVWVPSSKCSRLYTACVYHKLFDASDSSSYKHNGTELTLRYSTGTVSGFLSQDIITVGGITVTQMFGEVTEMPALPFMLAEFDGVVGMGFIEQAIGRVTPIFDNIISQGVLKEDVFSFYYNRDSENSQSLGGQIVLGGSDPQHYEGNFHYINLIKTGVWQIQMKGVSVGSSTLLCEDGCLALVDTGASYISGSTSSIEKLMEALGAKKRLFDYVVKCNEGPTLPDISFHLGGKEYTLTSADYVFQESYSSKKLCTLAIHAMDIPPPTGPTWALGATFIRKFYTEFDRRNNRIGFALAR
Put plainly: In vitro enzymatic activity assay of Renin inhibitors (fluorescence, QXL520/HiLyteFluo488 peptide substrate). It is filed as biochemical. The conditions noted are these: recombinant human renin 3 nM, 1 μM substrate, 37° C., pH 7.4; values given as ranges; read-out: IC50 of Exemplified Compounds Against Renin. The source says: Test compounds in varying concentrations may be reacted with recombinant human renin in the presence of substrate, e.g., QXL520-γ-Abu-Ile-His-Pro-Phe-His-Leu-Val-Ile-His-Thr-Lys (HiLyteFluo488)-Arg-OH (Anaspec, San Jose, Calif.). The reaction can be followed kinetically using fluorescence (excitation λ=485 nm; emission λ=538 nm). Inhibition constants (IC50) may be calculated by non-linear curve fitting of the compound concentrations and fluorescence intensities to the standard IC50 equation.
Solutions of test compounds in varying concentrations (<2 mM final concentration) are prepared in dimethyl sulfoxide (DMSO) and then diluted into assay buffer comprising 50 mM Hepes, 1 mM EDTA, 1 mM DTT, 0.1 mg/ml BSA, 0.01% Brij35, pH 7.4. Alternatively, the assay can be performed with a high BSA concentration, wherein the buffer contains an additional 2% BSA.
Recombinant human renin (3 nM final concentration) is added to the dilutions and pre-incubated with the compounds for 10 minutes at 37° C. As described in Examples A-C above, human Renin can be obtained by expressing preprorenin (residue 1-406) in mammalian cells, treating the prorenin (residues 24-406) contained in the culture supernatant with trypsin, and isolate the active form (residues 67-406). After pre-incubation, the reaction is initiated with 1 μM of substrate QXL520-γ-Abu-Ile-His-Pro-Phe-His-Leu-Val-Ile-His-Thr-Lys (HiLyteFluo488)-Arg-OH (Anaspec, San Jose, Calif.). The final DMSO in the assay is 5%. The total volume of the reaction mixture is 20 μL, which can be placed on Greiner 384-well small volume plates.
Renin activity may be determined via fluorescence (excitation λ=485 nm; emission λ=538 nm), e.g., on a Molecular Devices SPECTROmax GEMINI XPS. The fluorescence intensity is determined upon the addition of substrate and determined again after incubation at 37° C. for one hour. The fluorescence intensity of a blank (no inhibition) using vehicle alone is also determined. Renin activity is linearly proportional to the change in fluorescence observed (final−initial).
The percent inhibition of Renin at a given compound concentration is defined as:
100%×[1−(Fcompound/Fblank)]
where Fcompound is the observed fluorescence at a given concentration of test compound and Fblank is the observed fluorescence in the presence of vehicle alone.
The pIC50 value (negative log of the molar concentration of the compound that produces 50% inhibition) of a test compound is calculated by non-linear least squares curve fitting of the equation: […]
to percent inhibition versus compound concentration. The 50% inhibitory concentration (IC50) of a test compound is calculated by raising 10 to the negative pIC50 (10^−pIC50).
Consider `O=C(CCc1ccccc1)N1CCNC[C@H]1Cc1ccccc1` [Example 1, (R)-1-(2-Benzylpiperazin-1-yl)-3-phenylpropan-1-one], for which the IC50 was 5 to 50 µM.

`O=C(CC(c1ccccc1)c1ccccc1)N1CCNC[C@H]1Cc1ccccc1` [Example 2, (R)-1-(2-Benzylpiperazin-1-yl)-3,3-diphenylpropan-1-one]: the IC50 lay within 0.5 to 5 µM.

`O=C(Cc1ccccc1-c1ccc(F)cc1)N1CCNC[C@H]1Cc1ccccc1` [Example 3, (R)-1-(2-Benzylpiperazin-1-yl)-2-(4′-fluorobiphenyl-2-yl)ethanone]: the IC50 lay in the range of 0.5 to 5 µM.

Take `O=C(COc1ccccc1Br)N1CCNC[C@H]1Cc1ccccc1` [Example 4, (R)-1-(2-Benzylpiperazin-1-yl)-2-(2-bromophenoxy)ethanone]: the IC50 was 5 to 50 µM.

With `O=C(CCC(=O)N1CCNC[C@H]1Cc1ccccc1)c1ccccc1` [Example 5, (R)-1-(2-Benzylpiperazin-1-yl)-4-phenylbutane-1,4-dione], the IC50 is > 50 µM.

Take `O=C(C(Cc1ccccc1)c1ccccc1)N1CCNC[C@H]1Cc1ccccc1` (stereo partly drawn) [Example 6, 1-((R)-2-Benzylpiperazin-1-yl)-2,3-diphenylpropan-1-one]: the IC50 lay within 0.5 to 5 µM.

For the molecule `O=C(CCc1ccccc1Oc1ccccc1)N1CCNC[C@H]1Cc1ccccc1` [Example 7, (R)-1-(2-Benzylpiperazin-1-yl)-3-(2-phenoxyphenyl)propan-1-one], the IC50 is < 0.5 µM.

`O=C(Cc1ccccc1Oc1ccccc1)N1CCNC[C@H]1Cc1ccccc1` [Example 8, (R)-1-(2-Benzylpiperazin-1-yl)-2-(2-phenoxyphenyl)ethanone]: the IC50 is 5 to 50 µM.

In the case of `COc1ccccc1-c1ccccc1CC(=O)N1CCNC[C@H]1Cc1ccccc1` [Example 9, 1-((R)-2-Benzylpiperazin-1-yl)-2-(2′-methoxybiphenyl-2-yl)ethanone], the IC50 was 5 to 50 µM.

`O=C(NC(c1ccccc1)c1ccccc1)N1CCNC[C@H]1Cc1ccccc1` [Example 10, (R)—N-Benzhydryl-2-benzylpiperazine-1-carboxamide]: the IC50 is > 50 µM.

As to `O=C(Cc1ccccc1-c1ccccc1Cl)N1CCNC[C@H]1Cc1ccccc1` [Example 11, 1-((R)-2-Benzylpiperazin-1-yl)-2-(2′-chlorobiphenyl-2-yl)ethanone], the IC50 was 0.5 to 5 µM.

On to `O=S(=O)(CCc1ccccc1)N1CCNC[C@H]1Cc1ccccc1` [Example 12, (R)-2-Benzyl-1-(phenethylsulfonyl)piperazine], for which the IC50 fell in the range of 5 to 50 µM.

`O=S(=O)(CC(c1ccccc1)c1ccccc1)N1CCNC[C@H]1Cc1ccccc1` [Example 13, (R)-2-Benzyl-1-(2,2-diphenylethylsulfonyl)piperazine]: the IC50 was in the range of 0.5 to 5 µM.

As for `Cc1ccc(C(CC(=O)N2CCNC[C@H]2Cc2ccccc2)N2Cc3ccccc3C2=O)cc1` (stereo partly drawn) [Example 14, 2-(3-((R)-2-Benzylpiperazin-1-yl)-3-oxo-1-p-tolylpropyl)isoindolin-1-one], the IC50 was in the range of 0.5 to 5 µM.

As to `O=C(COc1cccc2ccccc12)N1CCNC[C@H]1Cc1ccccc1` [Example 15, (R)-1-(2-Benzylpiperazin-1-yl)-2-(naphthalen-1-yloxy)ethanone], the IC50 fell in the range of 5 to 50 µM.

For `O=C(CC(Cc1ccccc1)c1ccco1)N1CCNC[C@H]1Cc1ccccc1` (stereo partly drawn) [Example 16, 1-((R)-2-Benzylpiperazin-1-yl)-3-(furan-2-yl)-4-phenylbutan-1-one], the IC50 lay in the range of 0.5 to 5 µM.

As to `C[C@H](CC(=O)N1CCNC[C@H]1Cc1ccccc1)c1ccccc1` [Example 17, (R)-1-((R)-2-Benzylpiperazin-1-yl)-3-phenylbutan-1-one], the concentration for half-maximal inhibition (IC50) was in the range of 0.5 to 5 µM.

As for `C[C@@H](CC(=O)N1CCNC[C@H]1Cc1ccccc1)c1ccccc1` [Example 18, (S)-1-((R)-2-Benzylpiperazin-1-yl)-3-phenylbutan-1-one], the IC50 was in the range of 5 to 50 µM.

In the case of `O=C(CCCc1ccccc1)N1CCNC[C@H]1Cc1ccccc1` [Example 19, (R)-1-(2-Benzylpiperazin-1-yl)-4-phenylbutan-1-one], the IC50 is 5 to 50 µM.

`CC1(C)CC(CC(=O)N2CCNC[C@H]2Cc2ccccc2)(c2ccccc2)CCO1` (stereo partly drawn) [Example 20, 1-((R)-2-Benzylpiperazin-1-yl)-2-(2,2-dimethyl-4-phenyltetrahydro-2H-pyran-4-yl)ethanone]: the IC50 lay in the range of 0.5 to 5 µM.

Consider `O=C(Oc1ccccc1CCC(=O)N1CCNC[C@H]1Cc1ccccc1)c1ccccc1` [Example 21, (R)-2-(3-(2-Benzylpiperazin-1-yl)-3-oxopropyl)phenyl benzoate], for which the IC50 is 0.5 to 5 µM.

As to `O=C(CCc1ccccc1Oc1ccc(Cl)cc1)N1CCNC[C@H]1Cc1ccccc1` [Example 22, (R)-1-(2-Benzylpiperazin-1-yl)-3-(2-(4-chlorophenoxy)phenyl)propan-1-one], the IC50 is < 0.5 µM.

`Cc1cccc(Oc2ccccc2CCC(=O)N2CCNC[C@H]2Cc2ccccc2)c1` [Example 23, (R)-1-(2-benzylpiperazin-1-yl)-3-(2-(m-tolyloxy)phenyl)propan-1-one]: the IC50 is < 0.5 µM.

On to `CC(=O)NCCc1ccccc1Oc1ccccc1CCC(=O)N1CCNC[C@H]1Cc1ccccc1` [Example 24, (R)—N-(2-(2-(3-(2-Benzylpiperazin-1-yl)-3-oxopropyl)phenoxy)phenethyl)acetamide], for which the IC50 is < 0.5 µM.

`CC(=O)NCCc1cc(C)ccc1Oc1ccc(C)cc1CCC(=O)N1CCNC[C@H]1Cc1ccccc1` [Example 25, (R)—N-(2-(2-(3-(2-Benzylpiperazin-1-yl)-3-oxopropyl)-4-methylphenoxy)-1-methylphenethyl)acetamide]: the IC50 was < 0.5 µM.

As for `CC(=O)NCCc1ccccc1Oc1ccc(C)cc1CCC(=O)N1CCNC[C@H]1Cc1ccccc1` [Example 26, (R)—N-(2-(2-(3-(2-Benzylpiperazin-1-yl)-3-oxopropyl)-4-methylphenoxy)phenethyl)acetamide], the IC50 is < 0.5 µM.

`CC(=O)NCCc1cc(C)ccc1Oc1cc(C)ccc1CCC(=O)N1CCNC[C@H]1Cc1ccccc1` [Example 27]: the IC50 is < 0.5 µM.

Take `CC(=O)NCCc1ccccc1Oc1cc(C)ccc1CCC(=O)N1CCNC[C@H]1Cc1ccccc1` [Example 28, (R)—N-(2-(2-(3-(2-Benzylpiperazin-1-yl)-3-oxopropyl)-5-methylphenoxy)phenethyl)acetamide]: the IC50 was < 0.5 µM.

Take `CC(=O)NCc1ccccc1Oc1ccccc1CCC(=O)N1CCNC[C@H]1Cc1ccccc1` [Example 29, (R)—N-(2-(2-(3-(2-Benzylpiperazin-1-yl)-3-oxopropyl)phenoxy)benzyl)acetamide]: the IC50 is < 0.5 µM.

Consider `N#Cc1ccccc1Oc1ccccc1CCC(=O)N1CCNC[C@H]1Cc1ccccc1` [Example 30, (R)-2-(2-(3-(2-benzylpiperazin-1-yl)-3-oxopropyl)phenoxy)benzonitrile], for which the 50% inhibitory concentration (IC50) fell in the range of 0.5 to 5 µM.

For the molecule `CN(C)c1cccc(Oc2ccccc2CCC(=O)N2CCNC[C@H]2Cc2ccccc2)c1` [Example 31, (R)-1-(2-Benzylpiperazin-1-yl)-3-(2-(3-(dimethylamino)phenoxy)phenyl)propan-1-one], the IC50 was < 0.5 µM.

For `CCOc1cccc(Oc2ccccc2CCC(=O)N2CCNC[C@H]2Cc2ccccc2)c1` [Example 32, (R)-1-(2-Benzylpiperazin-1-yl)-3-(2-(3-ethoxyphenoxy)phenyl)propan-1-one], the IC50 was in the range of 0.5 to 5 µM.

For the molecule `CC(=O)Nc1cccc(Oc2ccccc2CCC(=O)N2CCNC[C@H]2Cc2ccccc2)c1` [Example 33, (R)—N-(3-(2-(3-(2-Benzylpiperazin-1-yl)-3-oxopropyl)phenoxy)phenyl)acetamide], the IC50 lay in the range of 0.5 to 5 µM.
